These results are taken from BindingDB's records for PubMed 9584223 (University of Bath, 1998).

“And” between values parts separate entries of the source, which are not always exact repeats. Identical values can stand only once.

Sequence of Neuronal acetylcholine receptor subunit alpha-4 (P43681 whole entry): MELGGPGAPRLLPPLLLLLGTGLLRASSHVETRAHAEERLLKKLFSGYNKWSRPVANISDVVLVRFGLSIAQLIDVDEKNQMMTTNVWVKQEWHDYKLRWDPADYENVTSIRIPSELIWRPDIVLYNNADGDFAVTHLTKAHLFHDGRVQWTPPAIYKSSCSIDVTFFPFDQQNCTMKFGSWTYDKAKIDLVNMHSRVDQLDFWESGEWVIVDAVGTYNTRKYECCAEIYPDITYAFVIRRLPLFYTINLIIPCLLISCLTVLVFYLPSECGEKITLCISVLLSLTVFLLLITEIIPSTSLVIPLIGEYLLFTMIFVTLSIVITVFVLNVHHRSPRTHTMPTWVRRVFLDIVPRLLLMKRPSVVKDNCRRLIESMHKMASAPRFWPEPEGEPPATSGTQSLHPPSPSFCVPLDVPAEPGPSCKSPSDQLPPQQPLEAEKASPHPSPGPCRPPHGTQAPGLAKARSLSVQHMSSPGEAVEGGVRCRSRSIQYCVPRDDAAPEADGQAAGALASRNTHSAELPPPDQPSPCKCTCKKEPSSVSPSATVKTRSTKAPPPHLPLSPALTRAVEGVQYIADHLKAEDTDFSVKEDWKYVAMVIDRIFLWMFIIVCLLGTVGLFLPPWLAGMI

The assay has as its target Neuronal acetylcholine receptor subunit alpha-4 (Homo sapiens, UniProt P43681).
In general, Ki refers to a measure of affinity in units of concentration, obtained from inhibition or displacement. Low values mean tighter binding, high ones weaker binding. Turning to `COc1cc2c3cc1Oc1cc(ccc1O)C[C@H]1c4c(cc(OC)c(O)c4Oc4ccc(cc4)C[C@@H]3N(C)CC2)CC[N+]1(C)C` [CAS_57-94-3], the Ki is 1000 nM and > 10000 nM.

`CNC1(C)C2CCC(C2)C1(C)C` (stereo unspecified) [Methyl-(2,3,3-trimethyl-bicyclo[2.2.1]hept-2-yl)-amine(Mecamylamine)]: the Ki is over 10000 nM.

As for `O=c1cccc2n1C[C@H]1CNC[C@H]2C1` [(1S,9R)-7,11-diazatricyclo[7.3.1.0~2,7~]trideca-2,4-dien-6-one], the Ki is 17 nM and 3.3 nM.

In the case of `Cc1cc([C@@H]2CCCN2C)on1` [ABT-418], the Ki is 1.7 nM.

With `C[N+](C)(C)CCCCCC[N+](C)(C)C` [Hexamethoniumdibromide], the Ki is over 10000 nM.

`CCN1C[C@]2(COC(=O)c3ccccc3-n3c(O)cc(C)c3O)CC[C@H](OC)[C@]34C5C[C@@H]6[C@@H](OC)C[C@@](O)(C5[C@H]6OC)[C@@](O)(C13)[C@@H](OC)C24` (stereo partly drawn) [[(1S,4S,5R,6S,8R,9R,13S,16S,18S)-11-ethyl-8,9-dihydroxy-4,6,16,18-tetramethoxy-11-azahexacyclo[7.7.2.1^{2,5}.0^{1,10}.0^{3,8}.0^{13,17}]nonadecan-13-yl]methyl 2-[(3S)-3-methyl-2,5-dioxopyrrolidin-1-yl]benzoate]: the inhibitory constant (Ki) was 6100 nM and 1600 nM.
